The conditions of series [1]: reported; cited from earlier work.
Series [2] in a line: Gamma irradiation of Tacrolimus. Format: physicochemical. An excerpt:
In certain embodiments, the composition can be irradiated before administration to a subject. For example, at least one component of the composition, such as, for example, tacrolimus, can undergo gamma irradiation before the final composition is created or the final composition can undergo gamma irradiation. In certain embodiments, the composition can be irradiated at a dose ranging from about 1 kilo-Gray (kGy) to about 100 kGy, preferably about 10 kGy to about 75 kGy, most preferably about 15 kGy to about 40 kGy.
The composition can be irradiated at a dose ranging from about 1 kilo-Gray (kGy) to about 100 kGy, preferably about 10 kGy to about 75 kGy, most preferably about 15 kGy to about 40 kGy (Table 36).

The conditions of series [3]: pH 5.
Series [4] in a line: Forced degradation (thermal, acidic, basic, oxidative, UV). Format: physicochemical. Here is the method:
Forced degradation of the drug product by thermal, acidic, basic, oxidative and UV stress conditions was performed. Forced degradation for the thermal, acidic and oxidative conditions were performed at 40° C., as it was anticipated that the drug would be stable under these conditions, based on its structure. UV and basic conditions were performed at ambient conditions. The drug product is most susceptible to basic stress conditions, and to a lesser extent is susceptible to UV and oxidative conditions. A summary of all the degradation peaks as a function of the stress condition can be found in Table 28.

Series [5] is described as follows: Contact angle on parafilm. It is filed as physicochemical. Conditions: 20 μL on parafilm, ambient temperature. The protocol: The Theta Lite Optical Tensiometer, Dynamic Contact Angle Measurement, 20 μL sample size was used to measure the contact angle of the tacrolimus compositions of parafilm of 73.50 and 73.20. The tacrolimus composition has better wettability on the hydrophobic surface of parafilm when compared to water (97.90 and 99.90).

Series [6] in a line: Surface tension (pendant drop). Conditions: Theta Lite Optical Tensiometer, 5 μL. Format: physicochemical. Here is the method: The Theta Lite Optical Tensiometer, Pendant drop Method, 5 μL sample size was used to measure the surface tension of the tacrolimus compositions.

“And” between values parts separate entries of the source, which are not always exact repeats. Equal entries are not always repeated.

Take `C=CC[C@@H]1/C=C(\C)C[C@H](C)C[C@H](OC)[C@H]2O[C@@](O)(C(=O)C(=O)N3CCCC[C@H]3C(=O)O[C@H](/C(C)=C/[C@@H]3CC[C@@H](O)[C@H](OC)C3)[C@H](C)[C@@H](O)CC1=O)[C@H](C)C[C@@H]2OC.O` [Tacrolimus]: in series [1], the log partition coefficient (log P) (commonly the decadic logarithm of the partition coefficient of the neutral form, usually between octanol and water) is 3.3. In series [2] (15 kGy solid), the “% impurities” value is 0.82% and the “Total [Tac] in sample measured” value was 0.96 mg/g. Also, in series [2] (25 kGy solid), the “% impurities” value is reported as 0.88% and the “Total [Tac] in sample measured” value is recorded as 0.92 mg/g. Besides, in series [2] (40 kGy solid), the “% impurities” value came to 0.91% and the “Total [Tac] in sample measured” value was determined as 0.91 mg/g. Further, in series [2] (Control solid), the “% impurities” value was found to be 0.56% and the “Total [Tac] in sample measured” value was found to be 0.99 mg/g. Further, the “Solubility of Tacrolimus in the supernatant” value in series [3] was ≤ 3.2 µg/g. In series [4] (Acid, 72h (40° C.)), the “Degradant at RRT 0.52, Area %” value is 0.52 (0.47%); the “Degradant at RRT 1.32, Area %” value was 1.32 (0.09%); the “Degradant at RRT 1.36, Area %” value is listed as 1.36 (0.07%). In series [4] (Base, 5 min (ambient)), the “Degradant at RRT 0.39, Area %” value is listed as 0.39 (1.52%); the “Degradant at RRT 0.52, Area %” value is 0.52 (27.62%); the “Degradant at RRT 0.79, Area %” value was 0.79 (0.97%); the “Degradant at RRT 1.28, Area %” value was 1.28 (0.20%). Besides, in series [4] (Base, 5 min (ambient)), the “Degradant at RRT 1.32, Area %” value is 1.32 (3.02%) and the “Degradant at RRT 1.35, Area %” value is on record as 1.35 (2.37%). In series [4] (Peroxide, 48 h (40° C.)), the “Degradant at RRT 0.43, Area %” value is 0.43 (2.03%); the “Degradant at RRT 1.18, Area %” value is 1.18 (0.17%); the “Degradant at RRT 1.20, Area %” value is 1.20 (0.05%); the “Degradant at RRT 1.25, Area %” value was 1.25 (0.35%). Further, in series [4] (Peroxide, 48 h (40° C.)), the “Degradant at RRT 1.27, Area %” value is on record as 1.27 (0.16%); the “Degradant at RRT 1.29, Area %” value is given as 1.29 (0.10%); the “Degradant at RRT 1.33, Area %” value is listed as 1.33 (0.06%); the “Degradant at RRT 1.44, Area %” value is 1.44 (0.08%). Further, the “Degradant at RRT 0.43, Area %” value in series [4] (Thermal, 72 h (40° C.)) was 0.43 (0.96%). Also, in series [4] (UV, 72 h (ambient)), the “Degradant at RRT 0.38, Area %” value is on record as 0.38 (0.36%); the “Degradant at RRT 0.45, Area %” value is recorded as 0.45 (0.88%); the “Degradant at RRT 0.53, Area %” value is listed as 0.53 (3.07%); the “Degradant at RRT 0.58, Area %” value was 0.58 (0.40%). Also, in series [4] (UV, 72 h (ambient)), the “Degradant at RRT 1.03, Area %” value is on record as 1.03 (1.30%); the “Degradant at RRT 1.10, Area %” value was 1.10 (0.94%); the “Degradant at RRT 1.13, Area %” value is given as 1.13 (2.90%); the “Degradant at RRT 1.17, Area %” value is on record as 1.17 (5.21%). The “Degradant at RRT 1.21, Area %” value in series [4] (UV, 72 h (ambient)) is 1.21 (13.81%).

In the case of Water, in series [5], the Contact angle is 97.9 ° and 99.9 °. Besides, in series [6], the “Surface Tension” value was 72 mN/m.

These data come from patent US20240197691A1, “TACROLIMUS COMPOSITIONS AND METHODS OF USE” (CN2 THERAPEUTICS, INC., priority 2022, published 2024).
